According to patent US12552748B2, “Pyridine (thio)amides as fungicidal compounds” (Bayer Aktiengesellschaft, priority 2020, dated 2026):
Marks after values point to notes of the source that are not given here.

Key:
physchem = assay type: physicochemical
How it was run: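 Reversed-phase HPLC per EEC directive 79/831 Annex V.A8, calibrated with straight-chain alkan-2-ones (C3–C16) of known Log P via linear interpolation of retention times. Lambda-max from UV spectra 200–400 nm at chromatographic peaks.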

Botrytis cinerea = experiment: In vivo preventive test on Botrytis cinerea (grey mould); conditions: 500 ppm of active ingredient, preventive spray on gherkin or cabbage, evaluated 4 to 5 days after inoculation, 0% = control plants, 100% = no disease, read-out: efficacy
Protocol: (§1) B-2. In Vivo Preventive Test on Botrytis cinerea (Grey Mould [table] The active ingredients were made soluble and homogenized in a mixture of Dimethyl sulfoxide/Acetone/Tween® 80 and then diluted in water to the desired concentration. The young plants of gherkin or cabbage were treated by spraying the active ingredient prepared as described above. Control plants were treated only with an aqueous solution of Acetone/Dimethyl sulfoxide/Tween® 80. After 24 hours, the plants were contaminated by spraying the leaves with an aqueous suspension of Botrytis cinerea spores.

Sphaerotheca fuliginea = experiment: In vivo preventive test on Sphaerotheca fuliginea (powdery mildew on cucurbits); conditions: Podosphaera fuliginea, 192 h; 500 ppm of active ingredient; preventive spray on gherkin; evaluated 8 days after inoculation; 0% = control plants, 100% = no disease; read-out: efficacy
Protocol: as §1, with “B-4.” for “B-2.”, “Sphaerotheca fuliginea (Powdery Mildew on Cucurbits” for “Botrytis cinerea (Grey Mould”, “gherkin” for “gherkin or cabbage”, “Sphaerotheca fuliginea” for “Botrytis cinerea”

Alternaria alternata = Alternaria alternata in vitro cell test; assay type: cell-based; conditions: 120 h, 20 ppm of active ingredient, liquid culture with spores, 5 days incubation, spectrometric measurement of mycelium growth, read-out: efficacy (inhibition of fungal growth)
Protocol: (§2) B-6. Alternaria alternata In Vitro Cell Test • Solvent: DMSO • Culture medium: 14.6 g anhydrous D-glucose (VWR), 7.1 g Mycological Peptone (Oxoid), 1.4 g granulated Yeast Extract (Merck), QSP 1 liter • Inoculum: spores suspension Fungicides were solubilized in DMSO and the solution used to prepare the required range of concentrations. […] A spore suspension of A. alternata was prepared and diluted to the desired spore density. Fungicides were evaluated for their ability to inhibit spore germination and mycelium growth in liquid culture assay. The compounds were added in the desired concentration to the culture medium with spores. After 5 days incubation, fungi-toxicity of compounds was determined by spectrometric measurement of mycelium growth. Inhibition of fungal growth was determined by comparing the absorbance values in wells containing the fungicides with the absorbance in control wells without fungicides.

Pyricularia oryzae = experiment: microbe, parasite or virus in culture; assay type: cell-based; conditions: 120 h, read-out: efficacy (inhibition of fungal growth)
[1] = test system: Colletotrichum lindemuthianum; experiment: Colletotrichum lindemuthianum in vitro cell test; assay type: cell-based; conditions: 144 h, read-out: efficacy (inhibition of fungal growth)
Protocol: B-8. Colletotrichum lindemuthianum In Vitro Cell Test
• Solvent: DMSO • Culture medium: 14.6 g anhydrous D-glucose (VWR), 7.1 g Mycological Peptone (Oxoid), 1.4 g granulated Yeast Extract (Merck), QSP 1 liter • Inoculum: spores suspension
Fungicides were solubilized in DMSO and the solution used to prepare the required range of concentrations. The final concentration of DMSO used in the assay was ≤1%.
A spore suspension of C. lindemuthianum was prepared and diluted to the desired spore density.
Fungicides were evaluated for their ability to inhibit spores germination and mycelium growth in liquid culture assay. The compounds were added in the desired concentration to the culture medium with spores. After 6 days incubation, fungi-toxicity of compounds was determined by spectrometric measurement of mycelium growth. Inhibition of fungal growth was determined by comparing the absorbance values in wells containing the fungicides with the absorbance in control wells without fungicides.

Pyrenophora teres = Pyrenophora teres in vitro cell test; assay type: cell-based; conditions: 144 h, 20 ppm of active ingredient, liquid culture with spores, 6 days incubation, spectrometric measurement of mycelium growth, read-out: efficacy (inhibition of fungal growth)
Protocol: as §2, with “B-9. Pyrenophora Teres In” for “B-6. Alternaria alternata In”, “Inoculum: spore” for “Inoculum: spores”, “of P. teres” for “of A. alternata”, “After 6” for “After 5”

SMILES	chromatographic logP (physchem)	pest or weed control at 500 ppm (Botrytis cinerea)	LogP (physchem)	further results
Cc1ccc(CCNC(=S)c2cc(Cl)ncc2Oc2cccc(C(F)(F)F)c2)c(C)c1 [Compound I-115, 2-chloro-N-[2-(2,4-dimethylphenyl)ethyl]-5-[3-(trifluoromethyl)phenoxy]pyridine-4-carbothioamide]	5.42	90 to 100%		pest or weed control at 500 ppm (Sphaerotheca fuliginea): 90 to 100%
Cc1ccc(CCNC(=O)c2cc(NC3CC3)ncc2Oc2cccc(C(F)(F)F)c2)c(C)c1 [Compound I-050, 2-(cyclopropylamino)-N-[2-(2,4-dimethylphenyl)ethyl]-5-[3-(tri-fluoromethyl)phenoxy]pyridine-4-carboxamide]	3.77	90 to 100%		inhibition at 20 ppm (Alternaria alternata): 90 to 100%
CC(=O)c1cc(C(=O)NCCc2ccc(C)cc2C)c(Oc2cccc(C(F)(F)F)c2)cn1 [Compound I-087, 2-acetyl-N-[2-(2,4-dimethylphenyl)ethyl]-5-[3-(trifluoromethyl)phenoxy]pyridine-4-carboxamide]	4.47	90 to 100%		pest or weed control at 500 ppm (Sphaerotheca fuliginea): 80 to 89%; inhibition at 20 ppm (Alternaria alternata): 90 to 100%; inhibition at 20 ppm (Pyricularia oryzae): 80 to 89%; inhibition at 20 ppm [1]: 80 to 89%
Cc1ccc(C(F)(F)CNC(=O)c2c(Oc3cccc(C(F)(F)F)c3)cnc(Cl)c2-n2cccn2)c(C)c1 [Compound I-167, 2-chloro-N-[2-(2,4-dimethylphenyl)-2,2-difluoroethyl]-3-(1H-pyrazol-1-yl)-5-[3-(trifluoromethyl)phenoxy]pyridine-4-carboxamide]	4.51	90 to 100%		pest or weed control at 500 ppm (Sphaerotheca fuliginea): 90 to 100%; inhibition at 20 ppm (Alternaria alternata): 90 to 100%; inhibition at 20 ppm (Pyricularia oryzae): 80 to 89%; inhibition at 20 ppm [1]: 80 to 89%; inhibition at 20 ppm (Pyrenophora teres): 90 to 100%
Cc1ccc(C(F)(F)CNC(=O)c2c(Oc3cccc(C(F)(F)F)c3)cnc(Cl)c2I)c(C)c1 [Compound I-057, 2-chloro-N-[2-(2,4-dimethylphenyl)-2,2-difluoro-ethyl]-3-iodo-5-[3-(trifluoromethyl)phenoxy]pyridine-4-carboxamide]	4.8	90 to 100%		pest or weed control at 500 ppm (Sphaerotheca fuliginea): 90 to 100%; inhibition at 20 ppm (Alternaria alternata): 90 to 100%
Cc1ccc(CCNC(=O)c2cc(Cl)ncc2Oc2ccc3c(c2)OC(F)(F)O3)c(C)c1 [Compound I-140, 2-chloro-5-[(2,2-difluoro-1,3-benzodioxol-5-yl)oxy]-N-[2-(2,4-dimethylphenyl)ethyl]pyridine-4-carboxamide]	4.82	70 to 79%		pest or weed control at 500 ppm (Sphaerotheca fuliginea): 90 to 100%; inhibition at 20 ppm (Pyrenophora teres): 90 to 100%
Cc1ccc(CCNC(=O)c2cc(Cl)nc(F)c2Oc2cccc(C(F)(F)F)c2)c(C)c1 [Compound I-018, 6-chloro-N-[2-(2,4-dimethylphenyl)ethyl]-2-fluoro-3-[3-(trifluoromethyl)phenoxy]pyridine-4-carboxamide]	4.95	90 to 100%		pest or weed control at 500 ppm (Sphaerotheca fuliginea): 90 to 100%
O=C(NCC(F)(F)c1ccc(C2CCCC2)cc1Cl)c1cc(Cl)ncc1Oc1cccc(C(F)F)c1 [Compound I-124, 2-chloro-N-[2-(2-chloro-4-cyclopentyl-phenyl)-2,2-difluoro-ethyl]-5-[3-(difluoromethyl)phenoxy]pyridine-4-carboxamide]	5.5			inhibition at 20 ppm (Pyrenophora teres): 90 to 100%
CCc1ccc(C(F)(F)CNC(=O)c2cc(Cl)ncc2Oc2cccc(C(F)(F)F)c2)c(Cl)c1 [Compound I-034, 2-chloro-N-[2-(2-chloro-4-ethyl-phenyl)-2,2-difluoro-ethyl]-5-[3-(trifluoromethyl)phenoxy]pyridine-4-carboxamide]	4.98	90 to 100%		pest or weed control at 500 ppm (Sphaerotheca fuliginea): 90 to 100%; inhibition at 20 ppm (Alternaria alternata): 80 to 89%
Cc1ccc(C(F)(F)CNC(=O)c2c(Oc3cccc(C(F)(F)F)c3)cnc(Cl)c2C)c(C)c1 [Compound I-019, 2-chloro-N-[2-(2,4-dimethylphenyl)-2,2-difluoro-ethyl]-3-methyl-5-[3-(trifluoromethyl)phenoxy]pyridine-4-carboxamide]	4.64	90 to 100%		pest or weed control at 500 ppm (Sphaerotheca fuliginea): 90 to 100%; inhibition at 20 ppm (Alternaria alternata): 90 to 100%; inhibition at 20 ppm (Pyricularia oryzae): 90 to 100%; inhibition at 20 ppm [1]: 90 to 100%
Cc1cccc(Oc2cnc(Cl)cc2C(=O)NCC(F)(F)c2ccc(Br)cc2Cl)c1 [Compound I-145]			5.08^[a]	
CON(CCc1ccc(Cl)cc1Cl)C(=O)c1cc(Cl)ncc1Oc1cccc(C(F)(F)F)c1 [Compound I-177]			5.24^[a]	
O=C(NCCc1cnc(C(F)(F)F)nc1)c1cc(Cl)ncc1Oc1cccc(C(F)(F)F)c1 [Compound I-110]			3.57^[a]	
Cc1ccc(C(F)(F)CNC(=O)c2cc(Cl)nc(F)c2Oc2cccc(C(F)(F)F)c2)c(C)c1 [Compound I-092]			5.04^[a]	
Cc1ccc(CCNC(=O)c2cc(C3CC3)ncc2Oc2cccc(C(F)(F)F)c2)c(C)c1 [Compound I-194]			4.97^[a]	
Cc1ccc(CCNC(=O)c2cc(Cl)ncc2Oc2cccc(OC(F)(F)F)c2)c(C)c1 [Compound I-025]			4.97^[a]	
CSc1cccc(Oc2cnc(Cl)cc2C(=O)NCCc2ccc(C)cc2C)c1 [Compound I-248]			4.76^[a]	
Cc1ccc(C(F)(F)CNC(=O)c2cc(Cl)ncc2Oc2cccc(Cl)c2)c(C)c1 [Compound I-036]			4.74^[a]	
C=Cc1c(Cl)ncc(Oc2cccc(C(F)(F)F)c2)c1C(=O)NCC(F)(F)c1ccc(C)cc1C [Compound I-146]			4.93^[a]	
Cc1ccc(C(F)(F)CNC(=O)c2cc(Cl)ncc2Oc2cccc(C3CC3)c2F)c(C)c1 [Compound I-061]			5.11^[a]	
C#Cc1cc(C(=O)OC)c(Oc2cccc(C(F)(F)F)c2)cn1 [Compound 1-003]			3.46^[a]	
COc1cc(C(F)CNC(=O)c2cc(Cl)ncc2Oc2cccc(C(F)(F)F)c2)ccc1Cl (racemic) [Compound I-081]			4.37^[a]	
Cc1ccc(CCNC(=O)c2cc(Cl)ncc2Oc2cccc(Br)c2F)c(C)c1 [Compound I-134]			4.78^[a]	
CCc1cccc(Oc2cnc(Cl)cc2C(=O)NCCc2ccc(C)cc2C)c1 [Compound I-135]			5.23^[a]	
Cc1ccc(C(F)(F)CNC(=O)c2cc(Cl)ncc2Br)c(C)c1 [Compound 3-003]			3.57^[a]	
Cc1ccc(CCNC(=O)c2cc(Cl)ncc2Oc2cccc(C3CC3)c2)c(C)c1 [Compound I-214]			5.14^[a]	
Cc1ccc(CCNC(=O)c2cc(Cl)ncc2Oc2c(F)ccc(C)c2F)c(C)c1 [Compound I-264]			4.76^[a]	
COc1cc(C(=O)NCC(F)(F)c2ccc(Br)cc2Cl)c(Oc2cccc(C(F)(F)F)c2)cn1 [Compound I-003]			4.95^[a]	
Cc1ccc(C(F)(F)CNC(=O)c2c(Oc3cccc(C(F)(F)F)c3)cnc(N3CCCC3)c2I)c(C)c1 [Compound I-231]			5.57^[a]	
